According to PMC10451648 (Antibiotics, 2023):
In brackets after ≈: the same amount, converted by molar mass. Entries after “also recorded” stand apart in the source; their conditions may differ. Like-named read-outs stand apart in the source and are kept apart here. Square brackets hold non-standard residues; d marks the D form. Peptide text beside a SMILES is read from it. Api = NC1(C(=O)O)CCNCC1; Aib = CC(C)(N)C(=O)O

Assays:
human red blood cells = assay: Hemolysis activity against red blood cells; conditions: human RBCs in 172 mM Tris-HCl pH 7.6, 30 min at 37 °C, absorbance 535 nm; DMSO = 0%, M-Lycotoxin = 100%; final peptide conc. 100 to 0.39
Method: AMPs primarily target microbial membranes, leading to their antimicrobial activity through membrane lysis. However, it is important to consider their potential effects on human cell membranes, as this could raise concerns regarding cytotoxicity. […] Hemolytic activity was assessed by measuring the absorption at 535 nm, which indicates the leakage of red blood cell cytoplasmic contents and hemoglobin.
Human red blood cells (RBCs) were supplied by the Japanese Red Cross Society (Tokyo, Japan). The hemolytic assay of the synthesized peptides was performed as previously reported. Briefly, 5.0 mL of the total erythrocytes were washed three times with 172 mM Tris-HCl buffer (pH = 7.6, wash buffer:WB) and 1.0 mL of precipitated erythrocytes was diluted with 9.0 mL of WB. Then, 0.5 mL of the suspension was diluted in WB, and 50 µL of RBC solution was incubated with 50 µL of each peptide for 30 min at 37 °C (final peptide conc. from 100 to 0.39 μM). The suspensions were then centrifuged at 400 rpm for 5 min. The absorbance of the supernatant was measured at a wavelength of 535 nm. M-Lycotoxin [22], which is a typical hemolytic toxic peptide derived from Wolf spider, was used as a positive control, and the absorbance of the sample from DMSO and M-Lycotoxin treatment was defined as 0 and 100%, respectively.

Escherichia coli DH5α = type: cell-based; conditions: broth microdilution, 10^4 CFUs per mL, 18 h at 35 °C; MIC = lowest concentration that completely inhibited bacterial growth; final conc. 0.39 to 100
Method: (§1) The antimicrobial activities of peptides 1–8 against Gram-positive Staphylococcus aureus, Gram-negative Escherichia coli DH5α, Pseudomonas aeruginosa, and multidrug-resistant P. aeruginosa (MDRP) were evaluated. The minimum inhibitory concentration (MIC) against these bacteria was measured as an indicator of antimicrobial activity, and the results are discussed in Table 2.
(§2) One type of Gram-positive bacteria, S. aureus NBRC 13276, and three Gram-negative bacteria, E. coli DH5α, P. aeruginosa NBRC 13275, and MDRP, were selected for the evaluation of the antimicrobial activity of the synthesized peptides. The selected bacterial strains were obtained from the Biological Resource Center, NITE (NBRC; Tokyo, Japan), and Escherichia coli DH5α cells were purchased from BioDynamics Laboratory, Inc. (Tokyo, Japan). The antimicrobial activities of the tested peptides 1–8 against each stain were examined by the standard broth microdilution method, as previously reported. Briefly, the bacteria were seeded and grown overnight at 37 °C on Agar media for other organisms i (Agar medium) and then collected with the media for other organisms ii (liquid medium), according to the 17th revision of Japanese Pharmacopoeia. Next, 10 μL of the peptide solution per well was added to each well of a sterile 96-well plate, and 90 μL per well of inoculation was mixed with 10^4 CFUs (colony forming units) per mL and added to each well, and the plate was incubated for 18 h at 35 °C.

S. aureus NBRC 13276 = type: cell-based, Staphylococcus aureus
Method: as §1, §2

[1] = PBS without FBS
in vitro = conditions: 50% fetal bovine serum in PBS
P. aeruginosa NBRC 13275 = type: cell-based, Pseudomonas aeruginosa; conditions: NBRC 13275, 18 h
Method: as §1, §2

[2] = test system: multidrug-resistant P. aeruginosa (MDRP); type: cell-based, Pseudomonas aeruginosa; conditions: multidrug-resistant (MDRP, 18 h)
Method: as §1, §2

Proteinase K = assay: 0.002% (v/v) Proteinase K; conditions: 37 °C, up to 24 h
[3] = broth microdilution, 10^4 CFUs per mL, 18 h at 35 °C, MIC = lowest concentration that completely inhibited bacterial growth, final conc. 0.39 to 100

Row | Molecule | Hemolysis (concentration at which hemolytic activity is exhibited) (human red blood cells) | MIC, E. Coli DH5α, Gram(−) (Escherichia coli DH5α) | MIC, S. aureus, Gram(+) (S. aureus NBRC 13276; [3]) | Stability in PBS [1] | residual amount after 24 h proteinase K treatment | remaining at 24 h (in vitro) | MIC, P. aeruginosa, Gram(−) (P. aeruginosa NBRC 13275) | MIC, S. aureus, Gram(+) (S. aureus NBRC 13276; NBRC 13276, 18 h) | MIC, MDRP [2] | cleaved bond (Proteinase K)
1 | CC[C@H](C)[C@H](NC(=O)CN)C(=O)NC1(C(=O)N[C@@H](CCCCN)C(=O)N[C@@H](Cc2ccccc2)C(=O)N[C@@H](CC(C)C)C(=O)N[C@@H](CCCCN)C(=O)N[C@@H](CO)C(=O)NC(C)(C)C(=O)N[C@@H](CCCCN)C(=O)N[C@@H](CCCCN)C(=O)N[C@@H](Cc2ccccc2)C(=O)N[C@H](C(=O)N[C@@H](CCCCN)C(=O)NC(C)(C)C(=O)N[C@@H](Cc2ccccc2)C(=O)N[C@@H](CCCCN)C(N)=O)C(C)C)CCNCC1 [Peptide 2] (H-GI[Api]KFLKS[Aib]KKFVK[Aib]FK-NH2) | 12.5 µM | 3.125 µM (≈ 6.23 µg/mL) | 12.5 µM (≈ 24.9 µg/mL) | stable in PBS | > 60% | 70% | 3.125 µM (≈ 6.23 µg/mL) |  |  | 
2 | CC[C@H](C)[C@H](NC(=O)CN)C(=O)N[C@@H](CCCCN)C(=O)NC1(C(=O)N[C@@H](Cc2ccccc2)C(=O)N[C@@H](CC(C)C)C(=O)N[C@@H](CCCCN)C(=O)N[C@@H](CO)C(=O)NC(C)(C)C(=O)N[C@@H](CCCCN)C(=O)N[C@@H](CCCCN)C(=O)N[C@@H](Cc2ccccc2)C(=O)N[C@H](C(=O)N[C@@H](CCCCN)C(=O)NC(C)(C)C(=O)N[C@@H](Cc2ccccc2)C(=O)N[C@@H](CCCCN)C(N)=O)C(C)C)CCNCC1 [Peptide 3] (H-GIK[Api]FLKS[Aib]KKFVK[Aib]FK-NH2) | 25 µM | 3.125 µM (≈ 6.23 µg/mL) |  |  |  |  | 3.125 µM (≈ 6.23 µg/mL) | 25 µM (≈ 49.8 µg/mL) |  | 
3 | CC[C@H](C)[C@H](NC(=O)CN)C(=O)N[C@@H](CCCCN)C(=O)N[C@@H](CCCCN)C(=O)N[C@@H](Cc1ccccc1)C(=O)N[C@@H](CC(C)C)C(=O)NC1(C(=O)N[C@@H](CO)C(=O)NC(C)(C)C(=O)N[C@@H](CCCCN)C(=O)N[C@@H](CCCCN)C(=O)N[C@@H](Cc2ccccc2)C(=O)N[C@H](C(=O)N[C@@H](CCCCN)C(=O)NC(C)(C)C(=O)N[C@@H](Cc2ccccc2)C(=O)N[C@@H](CCCCN)C(N)=O)C(C)C)CCNCC1 [Peptide 4] (H-GIKKFL[Api]S[Aib]KKFVK[Aib]FK-NH2) | 12.5 µM | 1.56 µM (≈ 3.11 µg/mL) | 12.5 µM (≈ 24.9 µg/mL) |  |  |  | 3.125 µM (≈ 6.23 µg/mL) |  | 6.25 µM (≈ 12.5 µg/mL) | 
4 | CC[C@H](C)[C@H](NC(=O)CN)C(=O)N[C@@H](CCCCN)C(=O)N[C@@H](CCCCN)C(=O)N[C@@H](Cc1ccccc1)C(=O)N[C@@H](CC(C)C)C(=O)N[C@@H](CCCCN)C(=O)N[C@@H](CO)C(=O)NC(C)(C)C(=O)NC1(C(=O)N[C@@H](CCCCN)C(=O)N[C@@H](Cc2ccccc2)C(=O)N[C@H](C(=O)N[C@@H](CCCCN)C(=O)NC(C)(C)C(=O)N[C@@H](Cc2ccccc2)C(=O)N[C@@H](CCCCN)C(N)=O)C(C)C)CCNCC1 [Peptide 5] (H-GIKKFLKS[Aib][Api]KFVK[Aib]FK-NH2) | 50 µM | 1.56 µM (≈ 3.11 µg/mL) |  |  |  |  | 3.125 µM (≈ 6.23 µg/mL) | 25 µM (≈ 49.8 µg/mL) | 6.25 µM (≈ 12.5 µg/mL) | 
5 | CC[C@H](C)[C@H](NC(=O)CN)C(=O)N[C@@H](CCCCN)C(=O)N[C@@H](CCCCN)C(=O)N[C@@H](Cc1ccccc1)C(=O)N[C@@H](CC(C)C)C(=O)N[C@@H](CCCCN)C(=O)N[C@@H](CO)C(=O)NC(C)(C)C(=O)N[C@@H](CCCCN)C(=O)NC1(C(=O)N[C@@H](Cc2ccccc2)C(=O)N[C@H](C(=O)N[C@@H](CCCCN)C(=O)NC(C)(C)C(=O)N[C@@H](Cc2ccccc2)C(=O)N[C@@H](CCCCN)C(N)=O)C(C)C)CCNCC1 [Peptide 6] (H-GIKKFLKS[Aib]K[Api]FVK[Aib]FK-NH2) | 50 µM | 1.56 µM (≈ 3.11 µg/mL) |  |  |  |  | 3.125 µM (≈ 6.23 µg/mL) | 12.5 µM (≈ 24.9 µg/mL) | 6.25 µM (≈ 12.5 µg/mL) | 
6 | CC[C@H](C)[C@H](NC(=O)CN)C(=O)N[C@@H](CCCCN)C(=O)N[C@@H](CCCCN)C(=O)N[C@@H](Cc1ccccc1)C(=O)N[C@@H](CC(C)C)C(=O)N[C@@H](CCCCN)C(=O)N[C@@H](CO)C(=O)NC(C)(C)C(=O)N[C@@H](CCCCN)C(=O)N[C@@H](CCCCN)C(=O)N[C@@H](Cc1ccccc1)C(=O)N[C@H](C(=O)NC1(C(=O)NC(C)(C)C(=O)N[C@@H](Cc2ccccc2)C(=O)N[C@@H](CCCCN)C(N)=O)CCNCC1)C(C)C [Peptide 7] (H-GIKKFLKS[Aib]KKFV[Api][Aib]FK-NH2) | 12.5 µM | 1.56 µM (≈ 3.11 µg/mL) | 12.5 µM (≈ 24.9 µg/mL) |  |  |  | 3.125 µM (≈ 6.23 µg/mL) |  | 6.25 µM (≈ 12.5 µg/mL) | 
7 | CC[C@H](C)[C@H](NC(=O)CN)C(=O)N[C@@H](CCCCN)C(=O)N[C@@H](CCCCN)C(=O)N[C@@H](Cc1ccccc1)C(=O)N[C@@H](CC(C)C)C(=O)N[C@@H](CCCCN)C(=O)N[C@@H](CO)C(=O)NC(C)(C)C(=O)N[C@@H](CCCCN)C(=O)N[C@@H](CCCCN)C(=O)N[C@@H](Cc1ccccc1)C(=O)N[C@H](C(=O)N[C@@H](CCCCN)C(=O)NC(C)(C)C(=O)N[C@@H](Cc1ccccc1)C(=O)NC1(C(N)=O)CCNCC1)C(C)C [Peptide 8] (H-GIKKFLKS[Aib]KKFVK[Aib]F[Api]-NH2) | 100 µM | 3.125 µM (≈ 6.23 µg/mL) |  |  |  |  | 3.125 µM (≈ 6.23 µg/mL) | 12.5 µM (≈ 24.9 µg/mL) | 12.5 µM (≈ 24.9 µg/mL) | 
8 | H-GIKKFLKS[Aib]KKFVK[Aib]FK-NH2 |  |  |  |  |  |  |  |  |  | Phe5-Leu6, 24 h; also recorded: Phe16-Lys17
9 | H-Gly-Ile-Api-Lys-Phe-Leu-Lys-Ser-Aib-Lys-Lys-Phe-Val-Lys-Aib-Phe-Lys-NH2 |  |  |  |  |  |  |  |  |  | Phe16-Lys17, 24 h
10 | H-Gly-Ile-Lys-Api-Phe-Leu-Lys-Ser-Aib-Lys-Lys-Phe-Val-Lys-Aib-Phe-Lys-NH2 |  |  |  |  |  |  |  |  |  | Phe16-Lys17, 24 h
11 | H-Gly-Ile-Lys-Lys-Phe-Leu-Api-Ser-Aib-Lys-Lys-Phe-Val-Lys-Aib-Phe-Lys-NH2 |  |  |  |  |  |  |  |  |  | Phe16-Lys17, 24 h
